From US20250082759A1, “COMPOSITIONS COMPRISING THERAPEUTIC NUCLEIC ACID AND TARGETED SAPONIN FOR THE TREATMENT OF MUSCLE-WASTING DISORDERS” (SAPREME TECHNOLOGIES B.V., priority 2021, published 2025)
Oligonucleotides are written 5' to 3', each unit as a sugar letter and its base; * is a phosphorothioate linkage, no mark a phosphodiester; rarer units and linkages stand in square brackets, end groups in braces. Plain capitals give the bases only. m = 2'-O-methyl

Assays:
dystrophin exon 51 = test: Exon 51 skip analysis in differentiated human myotubes from a non-DMD (healthy) donor (KM155); assay type: cell-based; settings: for % exon skipping: 72 hrs
Procedure: Immortalized human myoblasts from non-DMD donors (KM155) and myoblasts from a DMD-affected donor (DM8036) were cultured in Skeletal Muscle Cell Growth Medium (PromoCell, Germany) with supplementary pack according to manufacturer's instructions, further supplemented with 15% fetal bovine serum (Gibco, United Kingdom), and 0.5% gentamicin (Sigma-Aldrich, USA). For differentiation, cells were seeded on a 0.5% gelatine-coated surface, and at ˜70-80% confluence, the proliferation medium was replaced by DMEM (Gibco) supplemented with 2% FBS (Gibco), 2% GlutaMAX, and 1% glucose (Sigma-Aldrich) and 0.5% gentamycin. Treatments were started after at least 3 days up to a maximum of 5 days of differentiation (based on the presence of differentiated myotubes).
RNA was isolated with the TRIsure Isolation Reagent (Bioline) and chloroform extraction; isopropanol precipitation of RNA from the aqueous phase was performed as known to someone skilled in the art. For cDNA synthesis, 1000 ng of total RNA was used and diluted in an appropriate amount of RNase-free water to yield 8 μl RNA dilution. The priming premixed contained 1 μl dNTP mix (10 mM each) and 1 μl specific reverse primer (for KM155, h53R 5′-[…]-3′ [SEQ ID NO: 5]; for DM8036, h55R 5′-[…]-3′ [SEQ ID NO: 6]). This mixture was heated for 5 min at 70° C., then chilled on ice for at least 1 min. A reaction mixture was prepared containing 0.5 μl rRNasin (Promega), 4.0 μl RT buffer, 1.0 μl Tetro RT (Bioline), and 4.5 μl RNase-free water, and was added to the chilled mixture to yield a total volume of 20 μl per reaction. The RT-PCR was run for 60 min at 42° C., then 5 min at 85° C., and chilled on ice. For skip analysis, a nested PCR approach was followed. To this end, in the first PCR, 3 μl cDNA were added to a mix of 2.5 μl 10× SuperTaq PCR buffer, 0.5 μl dNTP mix (10 mM each), 0.125 μl Taq DNA polymerase TAQ-RO (5 U/μl; Roche) 16.875 μl RNase-free water and 1 μl (10 pmol/μl) of each primer flanking the targeted exons were used: for KM155, h48F 5′-[…]-3′ [SEQ ID NO: 7] and h53R 5′-[…]-3′ [SEQ NO: ID 5]; for DM8036, h47F2 5′-[…]-3′ [SEQ ID NO: 8] and h54R 5′-[…]-3′ [SEQ ID NO: 9]. These samples were subjected to a PCR run of 5 min at 94° C., then 25 cycles with 40 sec at 94° C., 40 sec at 60° C., 180 sec at 72° C., after which for 7 min at 72° C. For the second PCR, 1.5 μl PCR1 sample were added to a mix of 5 μl 10× SuperTaq PCR buffer, 1 μl dNTP mix (10 mM each), 0.25 μl Taq DNA polymerase TAQ-RO (5 U/μl; Roche), 38.25 μl RNase-free water and 2 μl (10 pmol/μl) of each primer flanking the targeted exons were used: for KM155, h49F 5′-[…]-3′ [SEQ ID NO: 10] and h52R2 5′-[…]-3′ [SEQ ID NO: 11]; for DM8036, h47F 5′-[…]-3′ [SEQ ID NO: 12] and h53R 5′-[…]-3′ [SEQ ID NO: 13]. These samples were subjected to a PCR run of 5 min at 94° C., then 32 cycles with 40 sec at 94° C., 40 sec at 60° C., 60 sec at 72° C., after which for 7 min at 72° C. Exon skipping levels were quantified with the Femto Pulse System using the Ultra Sensitivity NGS Kit (Agilent), according to the manufacturer's instructions. Alternatively, the specific PCR fragments were analyzed using Bioanalyzer 2100 with DNA1000 chip (lab-on-a-chip; Agilent), or separated on 2% agarose gels run at 120 V. Gels were imaged and band intensities were quantified using ImageJ. The expected non-skipped product has a size of 408 bp (KM155) and 475 bp (DM8036), and the skip product of 175 bp (KM155) or 242 bp (DM8036), respectively.
Immortalized human myoblasts from non-DMD donors (KM155) were cultured as described above in the Methods (as performed in Examples 1-5).
RNA was isolated with the TRIsure Isolation Reagent (Bioline) and chloroform extraction; isopropanol precipitation of RNA from the aqueous phase was performed as known to someone skilled in the art. […]

dystrophin exon 23 = test: Exon 23 skip analysis in differentiated murine C2C12 myotubes; assay type: cell-based, mouse
Procedure: Murine myoblast cell line C2C12 was maintained in 10% FBS DMEM medium+Pen/Strep and plated at 240,000 cells per well (cpw) in 24-well plates or 40,000 cpw in 96-well plates (wp) in maintenance medium (10% FBS in DMEM medium+Pen/Strep) and incubated at 37° C. with 5% CO2. Twenty-four hours after seeding, cells were switched to differentiation media (2% horse serum in DMEM) and incubated for 3 days before refreshing the medium. After another 24 hours, medium was refreshed again and compounds were added and incubated for 48 hours. Differentiation medium was then refreshed (without compounds), and cells were incubated for another 24 hours. At 72 hours total post treatment, cells in the 24-wp were harvested for exon skip analysis and the cell viability was assessed on the 96-wp.
For analysis of skip from murine cell lines, cells were harvested and RNA was isolated using 0.5 ml TRIzol™ Reagent (Thermo Scientific) per sample, according to the manufacturer's instruction. For analysis of tissue, 30-50 mg frozen tissue was first cut into smaller pieces and mRNA was isolated using TRIzol™ Reagent (Thermo Scientific) and a TissueLyser LT (Qiagen) according to the manufacturer's instruction. For cDNA synthesis per sample, to 0.5 μg RNA in 5.0 μl, 10.0 μl ddH2O, 4 μl 5× iScript™ Reaction Mix and 1.0 μl iScript™ Reverse Transcriptase (BioRad) were added to yield a total volume of 20.0 μl per reaction. The RT-PCR was run for 5 min at 25° C., 60 min at 46° C., and 2 min at 95° C. For skip analysis, SapphireAmp™ Fast PCR Master Mix (TakaraBio) was used according to the manufacturer's instructions. To this end, 9.7 μl RNAse free water, 12.5 μl of 2× Master Mix, 0.4 μl of 10 μM FW primer 5′-[…]-3′ (SEQ ID NO: 14) and 0.4 μl of […] RV primer 5′-[…]-3′ (SEQ ID NO: 15) were added to a PCR tube, mixed, after which 2 μl cDNA (50 ng) was added, to yield a total volume of 25 μl. These samples were subjected to a PCR run of 1 min at 94° C., 35 cycles of 5 sec at 98° C., 5 sec at 55° C., 5 sec at 72° C., followed by 1 min at 72° C. Samples were mixed with 2 μl 6× loading buffer, then 16 μl were loaded onto an 2% agarose gel and ran for 60-90 min at 80 V. Gels were imaged and band intensities were quantified with a ChemiDoc™ XRS+System and Image Lab™ Software (BioRad). The expected non-skipped product has a size of 788 bp, and the skip product of 575 bp, respectively.
Murine myoblast cell line C2C12 was maintained in 10% FBS DMEM medium+Pen/Strep and plated at 240,000 cells per well (cpw) in 24-well plates, or at 40,000 cpw in 96-well plates (wp), in maintenance medium (10% FBS in DMEM medium+Pen/Strep) and incubated at 37° C. with 5% CO2. Twenty-four hours after seeding, cells were switched to differentiation media (2% horse serum in DMEM) and incubated for 3 days before refreshing the medium. After another 24 hours, medium was refreshed again and compounds were added and incubated for 48 hours. At 48 hours total post treatment, cells in the 24-wp were harvested for exon skip analysis and the cell viability was assessed on the 96-wp.
Performed as described above in the Methods (as performed in Examples 1-5).

DMD-ASO: 2′O-methyl-phosporothioate antisense oligonucleotide 5′-UCAAGGAAGAUGGCAUUUCU-3′ [SEQ ID NO: 1]; exon 51 skipping; same sequence and chemistry as drisapersen (antisense mU*mC*mA*mA*mG*mG*mA*mA*mG*mA*mU*mG*mG*mC*mA*mU*mU*mU*mC*mU; further chemistry not fully specified)
improvement in potency with vs without SO1861-EMCH or SO1861-SC-Mal co-administration (dystrophin exon 51): one to two orders of magnitude lower
% exon skipping (dystrophin exon 51; 0.08 μM DMD oligo alone, Lab-on-a-chip): 0%
% exon skipping (dystrophin exon 51; 0.31 μM DMD oligo alone, Lab-on-a-chip): 0%
% exon skipping (dystrophin exon 51; 1.25 μM DMD oligo alone, Lab-on-a-chip): 0%
% exon skipping (dystrophin exon 51; 5 μM DMD oligo alone, Lab-on-a-chip): 1%

IGF-1-SO1861+500 nM M23D: IGF-1-SO1861 (DAR2.7) co-administered with 500 nM M23D
exon 23 skip (dystrophin exon 23; 133 nM IGF-1-SO1861 + 500 nM M23D): 8%
exon 23 skip (dystrophin exon 23; 667 nM IGF-1-SO1861 + 500 nM M23D): 11%
exon 23 skip (dystrophin exon 23; 3333 nM IGF-1-SO1861 + 500 nM M23D): 19%

DMD-PMO: PMO 5′-CTCCAACATCAAGGAAGATGGCATTTCTAG-3′ [SEQ ID NO: 2]; exon 51 skipping; same sequence but not 5′-modifications as eteplirsen (all phosphorodiamidate morpholino (PMO))
improvement in potency with vs without SO1861-EMCH or SO1861-SC-Mal co-administration (dystrophin exon 51): one to two orders of magnitude lower
% exon skipping (dystrophin exon 51; 0.08 μM DMD oligo alone, Femto): 0%
% exon skipping (dystrophin exon 51; 0.31 μM DMD oligo alone, Femto): 0%
% exon skipping (dystrophin exon 51; 1.25 μM DMD oligo alone, Femto): 0%
% exon skipping (dystrophin exon 51; 5 μM DMD oligo alone, Femto): 0%
% exon skipping (dystrophin exon 51; 20 μM DMD oligo alone, Femto): 4%

M23D: PMO 5′-GGCCAAACCTCGGCTTACCTGAAAT-3′ [SEQ ID NO: 3] that induces exon 23 skipping of mouse dystrophin (all phosphorodiamidate morpholino (PMO))
exon 23 skip (dystrophin exon 23; 500 nM M23D alone (0 nM conjugate)): 5%
exon 23 skip activity (dystrophin exon 23; 500 nM M23D alone, 48 h): no exon skip activity
